Source: article PMC5427942, “Methionine aminopeptidase 2 is a key regulator of apoptotic like cell death in Leishmania donovani” (Scientific Reports, 2017)

B1: methionine aminopeptidase 2 (LdMAP2) (Leishmania donovani) (protein)
chain: MPPKMSAKNKQQPKQQGGNKKGKGSSQDGDDFDAMLAAAVNASKADAAKNHSNNHQGKRSSNGNGTAPASRSLAADEPVVPSSADHPENPYPKTADGYPRQTWPEPTVLVSKQFAPGQFPAGEIVDHPGEMNNFRRSSEEKRALARASEQQVQEMREAAEVHRQVRTWAQSWIKPGLSLMLMTDRIEKKLNELIGKDGILRGQAFPTGCSLNHVAAHYTPNTGDEKVVLAYDDVMKVDFGTHINGRIIDCAWTVAFNPMFDPLLQAVKEATYEGIKQAGIDVRLGDIGAAIEEVMESHEVEINGKVHQVKSIRNLSGHNIAPYIIHSGKSVPIVKGGEQTKMEEGEVFAIETFGSTGRGFVNEDLECSHYMMRPGAEVMQLRSEKAQQLLKHIHKSYSTLAFCRKWLDRDGFDRHLMNLNRLVDEGAVNKYPPLVDVKGSYTAQYEHTIYLGPTAKEILSKGSDY

How the values were obtained:
[1] = biological target: T1, methionine aminopeptidase 2 (LdMAP2) (Leishmania donovani, UniProt A0A3S7WWI2); test: fluorogenic Met-AMC hydrolysis assay, Lineweaver-Burk plot, single inhibitor concentration ([…]); format: biochemical
T1 construct: gene LdCL_210014600

purified protein = substrate: CSCC[C@H](N)C(=O)Nc1ccc2c(C)cc(=O)oc2c1; test: purified protein; conditions: divalent metal ion ([…] NiSO4 in assay)

Molecule | Ki [1] | Km (purified protein)
CO[C@@H]1[C@H](OC(=O)NC(=O)CCl)CC[C@]2(CO2)[C@H]1[C@@]1(C)O[C@@H]1CC=C(C)C [TNP-470, 5-methoxy-4-(2-methyl-3-(3-methyl-2-butenyl)oxiranyl)-1-oxaspiro(2,5)oct-6-yl (chloroacetyl) carbamate] | 13.5 nM | –
B1 | – | 200 µM
